Test results: article PMC12458691 (Inorganic Chemistry, 2025)
Where two headings read alike, the source gives them in different places. One block for each molecule: values may come before it.

Key:
[1] = Catalase activity by pressure monitoring of evolved O2; format: biochemical; settings: 25°C, pH 7.5
Protocol: The quantification of the evolved oxygen is frequently used to evaluate the catalase activity. − In this work, the amount of gas evolved during the reaction of the Fe^2+–^ COOH PyNMe 3 complex with hydrogen peroxide was monitored by measuring the pressure changes over time using a previously calibrated Man on the Moon X104 gas evolution kit. For that purpose, 2.5 mL of an aqueous solution of the complex at concentrations of (0.5–2.7) × 10^–4 M buffered at pH 7.5 with TRIS (50 mM) was prepared inside a glovebox, placed in a closed reaction vessel, and purged with nitrogen. Once the pressure readings were stabilized, 0.2–1.2 mL of a 0.12 M aqueous solution of H2O2 (also prepared in TRIS 50 mM at pH 7.4) was added, and the pressure was then measured as a function of time. A blank experiment was conducted with a complex-free solution of a 50 mM TRIS solution with hydrogen peroxide at pH 7.4, where no O2 evolution was detected. The same result was obtained for blank experiments, including also the ligand but not the metal ion or the free metal ion (i.e., Fe^2+, Fe^3+, or Cu^2+) in the absence of the ligand (see Entries 8–12 in Table ). […] Nevertheless, the possible formation of small amounts of CO2, which would introduce a small error in the estimation of evolved O2, cannot be completely ruled out.

[2] = parameters: method as in footnotes c–f, numbers not given; settings: Cu2+ complexes/salt/enzyme, literature data for comparison; ref footnotes c–f, numbers not given; cited from earlier work
[3] = Stability constants and speciation of Cu2+ complexes by potentiometric measurements; format: physicochemical; settings: for pCu: calculated for theoretical solutions
Protocol: (§1) Caution! Perchlorate salts are explosive and should be handled with care; such compounds should never be heated as solids. The potentiometric titrations were carried out at 298.1 ± 0.1 K using 0.15 M NaClO4 as the supporting electrolyte. The experimental procedure (buret, potentiometer, cell, stirrer, microcomputer, etc.) has been fully described elsewhere. The acquisition of raw potentiometric data was performed with the computer program PASAT. The reference electrode was a Ag/AgCl electrode in a saturated KCl solution. The glass electrode was calibrated as a hydrogen-ion concentration probe by titration of previously standardized amounts of HCl with CO2-free NaOH solutions, and the equivalent point was determined by Gran’s method, , which gives the standard potential, E̊, and the ionic product of water (pK w = 13.73(1)). The computer program […] was used to calculate the protonation and stability constants. The HYSS program was used to obtain the distribution diagrams. The pH range investigated by using this technique was 2.5–11.0, in accordance with the linear response range of glass electrodes. The solutions were extensively deaerated with an argon flow before the potentiometric runs. A moderate argon flow was maintained throughout the course of the titrations. The different titration curves for each system (at least two) were treated either as a single set or as separate curves without significant variations in the values of the stability constants. Finally, the sets of data were merged and treated simultaneously to give the final stability constants.

[4] = McCord–Fridovich nitroblue tetrazolium (NBT) SOD activity assay; format: biochemical; settings: for SOD activity of the Fe2+ complexes (in words): NBT method, under the conditions of this study; for increase in the SOD catalytic constant of the Cu2+ complex on functionalization of the pyridine: relative to Cu2+ complexes of HPyNH3 or HPyNMe3
Source text: First, the SOD activity of the complexes was studied by means of the nitroblue tetrazolium (NBT) method, also known as McCord–Fridovich method. This is a widely used, indirect method based on the side production of superoxide anions by the xanthine oxidase enzyme and their capture by the NBT dye to give formazan. − A compound displaying SOD activity decreases the flow of superoxide radical anions and, thereby, the production of formazan (see the representation of the fitting of the data in Figures and S13–S16). Thus, by following the absorption band of formazan at 560 nm, the SOD activity of the studied mimetic can be quantified. Blank experiments were recorded with the ligands alone without observing any effect. The values of IC50, defined as the amount of the compound necessary for achieving 50% inhibition of NBT reduction to formazan by the superoxide anion, together with the catalytic constants (k cat), were obtained as indicated in the Experimental Section and are summarized in Table .
The SOD-like activity was determined by using the nitroblue tetrazolium (NBT) method, which despite its limitations is frequently used to estimate the activity of SOD mimetics. − The assays were carried out in a pH = 7.4 50 mM HEPES buffer at 298 K. The xanthine (2.2 × 10^–4 M) and xanthine oxidase (ca. 3 UN) system was used to generate a reproducible and constant flux of superoxide anions. […] Data in the absence of the complex were used as a reference. […] The percentage of inhibition of the NBT reduction to formazan was used as a measure of the SOD activity of the compounds. The concentration of the complex required to yield 50% inhibition of NBT reduction (IC50) was determined from a plot of percentage inhibition versus complex concentration. The IC50 data were calculated from the mean values of (at least) three independent measurements. The catalytic constant was calculated from the IC50 using the equation k cat = k NBT[NBT]/IC50 where k NBT = (5.94 ± 0.5) × 10^4 M^–1 s^–1. −

[5] = 0.15 M NaClO4, 298.1 K; ref footnote c, number not printed; cited from earlier work
[6] = 0.15 M NaClO4, 298.1 K, ref footnote c, number not printed, cited from earlier work
[7] = Protonation constants by potentiometric and UV–vis titrations; format: physicochemical
Protocol: as §1
The solvents used were of spectroscopic or equivalent grade. Water was twice distilled and passed through a Millipore apparatus. The pH values were measured with a Metrohm 713 pH meter, and adjustments of the hydrogen-ion concentration of the solutions were made with diluted HCl and NaOH solutions. UV–vis absorption spectra were recorded between pH 2 and 11 with an Agilent 8453 spectrometer. The resulting data from the titrations were used to calculate the third protonation constant of ^ COOMe PyNMe 3 . For this, the HypSpec program was employed, considering all of the absorbance intensities in the range of 250 and 350 nm.

[8] = Stability constants and speciation of Fe2+ complexes by potentiometric measurements; format: physicochemical; settings: for pFe: calculated for theoretical solutions
Protocol: as §1

[9] = entry 10: no ligand, [Cu2+]0 2.7 × 10^–4 M as Cu(ClO4)2, [H2O2]0 4.3 × 10^–2 M
[10] = entry 8: no ligand, [Fe2+]0 2.14 × 10^–4 M as Fe(SO4), [H2O2]0 3.4 × 10^–2 M
[11] = entry 9: no ligand, 2.14 × 10^–4 M FeCl3, [H2O2]0 3.4 × 10^–2 M
[12] = 0.15 M NaClO4, 298.1 K, potentiometry
[13] = entry 12: ligand alone 2.14 × 10^–4, no metal ion, [H2O2]0 3.4 × 10^–2 M

Compound: [Cu+2].[O-][Cl+3]([O-])([O-])[O-].[O-][Cl+3]([O-])([O-])[O-] [Cu(ClO4)2]
- TON (moles of H2O2 decomposed by one mol of metal ions) [1, 9]: 0
- nO2(g) [1, 9]: 0 mol
- k cat (SOD catalytic constant) [2]: 2.7 10^6 M^–1 s^–1

- TON (moles of H2O2 decomposed by one mol of metal ions) [1, 10]: 0
- nO2(g) [1, 10]: 0 mol
Compound: O=S(=O)([O-])[O-].[Fe+2] [Fe(SO4)]

- TON (moles of H2O2 decomposed by one mol of metal ions) [1, 11]: 0
- nO2(g) [1, 11]: 0 mol
Compound: [Cl][Fe]([Cl])[Cl] [FeCl3]

- pCu ([3]; pH 7.4, [L]=[M]=1 µM): 9.80
- pCu ([3]; pH 7.4, [L]=[M]=10 µM): 9.30
Compound: O=C(O)c1cc2nc(c1)CNCCNCCNC2 [^ COOH PyNH 3]
- SOD activity of the Fe2+ complexes (in words) [4]: negligible SOD activity
- increase in the SOD catalytic constant of the Cu2+ complex on functionalization of the pyridine [4]: 6- to 10 fold
- log K, H2L^(2+x)++H^+⇄H3L^(3+x)+ (stepwise protonation constant) [5]: 2.25(2)
- log K, HL^(1+x)++H^+⇄H2L^(2+x)+ (stepwise protonation constant) [5]: 7.90(1)
- log K, L^x+H^+⇄HL^(1+x)+ (stepwise protonation constant) [5]: 10.80(1) ^d
- log β (∑log K, protonation) [5]: 20.95
- log K, Cu+L⇄[CuL] (stability constant) [6]: 17.62(2) ^c, ^d
- log K, [CuL]+H2O⇄[CuL(OH)]+H [6]: –9.07(2) ^c
- log K, Cu+L⇄[CuL] (stability constant) ([6]; listed as COOHPyNH3): 17.62
- k cat (SOD catalytic constant) [2]: 9.7 10^6 M^–1 s^–1

- log β (∑log K, protonation) ([7]; 0.15 M NaClO4, 298.1 K): 21.53
- log K, H2L^(2+x)++H^+⇄H3L^(3+x)+ (stepwise protonation constant) [7, 12]: 2.90(4)
- log K, HL^(1+x)++H^+⇄H2L^(2+x)+ (stepwise protonation constant) [7, 12]: 7.73(3)
- log K, L^x+H^+⇄HL^(1+x)+ (stepwise protonation constant) [7, 12]: 10.90(2)
- three protonation constants, span from first to third ([7]; potentiometric titrations (third constant of COOMePyNMe3 by UV)): 10.90 to 2.90 logarithmic units
- log K, Cu+L⇄[CuL] (stability constant) ([3]; 0.15 M NaClO4, 298.1 K): 16.35(4)
- log K, [CuL]+H2O⇄[CuL(OH)]+H ([3]; 0.15 M NaClO4, 298.1 K): –9.24(7)
- log K, Cu+L⇄[CuL] (stability constant) ([3]; 0.15 M NaClO4, 298.1 K, listed as COOHPyNMe3): 16.35
- pCu ([3]; pH 7.4, [L]=[M]=1 µM): 9.18
- pCu ([3]; pH 7.4, [L]=[M]=10 µM): 8.68
- log K, Fe+L⇄[FeL] (stability constant) ([8]; 0.15 M NaClO4, 298.1 K): 10.02(2)
- log K, [FeL]+H2O⇄[FeL(OH)]+H ([8]; 0.15 M NaClO4, 298.1 K): –9.44(4)
- pFe ([8]; pH 7.4, [L]=[M]=1 µM): 6.22
- pFe ([8]; pH 7.4, [L]=[M]=10 µM): 5.58
- free Fe2+ ([8]; pH 7.5, [COOHPyNMe3]=[Fe2+]=50 µM, 0.15 M NaClO4 (Figure S19)): 10.9%
- free Fe2+ ([8]; pH 7.5, [COOHPyNMe3]=[Fe2+]=270 µM, 0.15 M NaClO4 (Figure S18)): 4.8%
- TON (moles of H2O2 decomposed by one mol of metal ions) [1, 13]: 0
- nO2(g) [1, 13]: 0 mol
Compound: CN1CCN(C)Cc2cc(C(=O)O)cc(n2)CN(C)CC1 [^ COOH PyNMe 3]
- SOD activity of the Fe2+ complexes (in words) [4]: negligible SOD activity
- k cat (SOD catalytic constant) ([4]; metal complexes, calculated from IC50 as kNBT[NBT]/IC50, pH 7.4, [NBT] = 59 μM): 12.3 10^6 M^–1 s^–1
- increase in the SOD catalytic constant of the Cu2+ complex on functionalization of the pyridine [4]: 6- to 10 fold
